Counter-ions that a name gives are not always drawn.

The first data set has as its target T1, Human plasma SSAO (Homo sapiens, UniProt Q16853).
T1 construct: The enzyme suspension prepared from blood plasma was pre-incubated with a control compound; from tissue; host or cells: human blood plasma
T1 sequence (Q16853 27-763 limits assumed): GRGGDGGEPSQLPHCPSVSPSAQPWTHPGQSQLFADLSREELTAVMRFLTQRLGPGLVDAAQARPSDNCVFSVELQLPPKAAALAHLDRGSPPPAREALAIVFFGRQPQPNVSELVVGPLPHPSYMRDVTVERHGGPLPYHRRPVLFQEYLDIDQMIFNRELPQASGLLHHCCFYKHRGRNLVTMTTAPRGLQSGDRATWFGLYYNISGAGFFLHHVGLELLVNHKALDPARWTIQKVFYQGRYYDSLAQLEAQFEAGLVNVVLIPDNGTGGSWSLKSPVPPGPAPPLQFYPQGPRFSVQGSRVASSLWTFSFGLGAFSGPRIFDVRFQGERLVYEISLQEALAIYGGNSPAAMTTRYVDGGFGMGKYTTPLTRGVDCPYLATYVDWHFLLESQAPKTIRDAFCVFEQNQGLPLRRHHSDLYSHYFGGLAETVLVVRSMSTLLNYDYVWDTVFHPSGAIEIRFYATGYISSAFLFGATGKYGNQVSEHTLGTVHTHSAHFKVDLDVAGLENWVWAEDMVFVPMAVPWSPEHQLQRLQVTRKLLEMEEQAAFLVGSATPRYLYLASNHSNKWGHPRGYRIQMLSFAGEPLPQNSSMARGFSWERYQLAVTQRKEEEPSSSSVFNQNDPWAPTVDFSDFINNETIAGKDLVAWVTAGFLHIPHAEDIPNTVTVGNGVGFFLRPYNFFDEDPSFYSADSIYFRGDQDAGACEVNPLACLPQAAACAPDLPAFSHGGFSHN
Nature of the data set: VAP-1 enzyme (SSAO) activity in human plasma, radiochemical-enzyme assay with 14C-benzylamine. As to conditions: human plasma enzyme suspension; pre-incubation 30 min at room temperature; 14C-benzylamine 2×10^−5 mol/l, 37° C., 1 hour; read-out: Inhibitory effect (IC50 values, μM) Human plasma SSAO. The data set is classed as biochemical. The protocol:
VAP-1 enzyme (SSAO) activity in human plasma was determined by a radiochemical-enzyme assay using ^14C-benzylamine as an artificial substrate. The enzyme suspension prepared from blood plasma was pre-incubated with a control compound (Reference Example 1) in 96-well microplate at room temperature for 30 min. The enzyme suspension was then incubated with ^14C-benzylamine (2×10^−5 mol/l final concentration) in a final volume of 50 μl at 37° C. for 1 hour. The enzyme reaction was terminated by adding 2 mol/l (50 μl) citric acid. The oxidized products were directly extracted into a 200 μl toluene scintillator, and its radioactivity was measured by a scintillation spectrometer. Inhibition activity was expressed as IC50 (μmol/l) value.
Test compounds (i.e., the present compounds) inhibited the enzyme activity of human plasma SSAO in comparison with the control compound as shown in Table 1.
One may read the IC50 as the midpoint of a concentration-inhibition curve. With `CC(=O)Nc1nc(CCc2ccc(NC(=N)N)cc2)cs1` [Reference Example 1, N-{4-[2-(4-{[amino(imino)methyl]amino}phenyl)ethyl]-1,3-thiazol-2-yl}acetamide, reference compound], the IC50 was 0.033 µM.

Turning to `CC(=O)Nc1nc(CCc2ccc(NC(=N)N)cc2)c(CN(C)C(=O)c2ccc([N+](=O)[O-])cc2)s1` [Production Example 19, N-({2-(acetylamino)-4-[2-(4-{[amino(imino)methyl]amino}phenyl)ethyl]-1,3-thiazol-5-yl}methyl)-N-methyl-4-nitrobenzamide hydrochloride], the IC50 worked out at 0.032 µM.

With `CC(=O)Nc1nc(CCc2ccc(NC(=N)N)cc2)c(CN2CC[C@@H](C(=O)N(C)C)C2)s1` [Production Example 12, (3R)-1-({2-(acetylamino)-4-[2-(4-{[amino(imino)methyl]amino}phenyl)ethyl]-1,3-thiazol-5-yl}methyl)-N,N-dimethyl-3-pyrrolidinecarboxamide dihydrochloride], the IC50 was found to be 0.019 µM.

Turning to `CC(=O)Nc1nc(CCc2ccc(NC(=N)N)cc2)c(Cc2cccc(S(C)(=O)=O)c2)s1` [Production Example 1, N-{4-[2-(4-{[amino(imino)methyl]amino}phenyl)ethyl]-5-[3-(methylsulfonyl)benzyl]-1,3-thiazol-2-yl}acetamide], the concentration for half-maximal inhibition (IC50) was 0.016 µM.

For the molecule `CC(=O)Nc1nc(CCc2ccc(NC(=N)N)cc2)c(Cc2ccc(S(N)(=O)=O)cc2)s1` [Production Example 3, N-{4-[2-(4-{[amino(imino)methyl]amino}phenyl)ethyl]-5-[4-(aminosulfonyl)benzyl]-1,3-thiazol-2-yl}acetamide hydrochloride], the IC50 came to 0.0045 µM.

As for `CC(=O)Nc1nc(CCc2ccc(CCNC(=N)N)cc2)cs1` [Production Example 25, N-(4-{2-[4-(2-{[amino(imino)methyl]amino}ethyl)phenyl]ethyl}-1,3-thiazol-2-yl)acetamide], the half-maximal inhibitory concentration (IC50) stood at 0.0057 µM.

In the case of `CC(=O)Nc1nc(CCc2ccc(CC(=O)NC(=N)N)cc2)cs1` [Production Example 9, 2-(4-{2-[2-(acetylamino)-1,3-thiazol-4-yl]ethyl}phenyl)-N-[amino(imino)methyl]acetamide], the IC50 stood at 0.0026 µM.

Take `CC(=O)Nc1nc(CCc2ccc(NC(=N)N)cc2)c(CN2CC[C@H](C(=O)N(C)C)C2)s1` [Production Example 14, (3S)-1-({2-(acetylamino)-4-[2-(4-{[amino(imino)methyl]amino}phenyl)ethyl]-1,3-thiazol-5-yl}methyl)-N,N-dimethyl-3-pyrrolidinecarboxamide dihydrochloride]: the half-inhibitory concentration (IC50) was 0.014 µM.

Turning to `CC(=O)Nc1nc(-c2ccc(CCCCNC(=N)N)cc2)cs1` [Production Example 7, N-{4-[4-(4-{[amino(imino)methyl]amino}butyl)phenyl]-1,3-thiazol-2-yl}acetamide hydrochloride], the IC50 was 0.015 µM.

Turning to `CC(=O)Nc1nc(CCc2ccc(NC(=N)N)cc2)c(CN(C)C(=O)c2ccc(S(C)(=O)=O)cc2)s1` [Production Example 16, N-({2-(acetylamino)-4-[2-(4-{[amino(imino)methyl]amino}phenyl)ethyl]-1,3-thiazol-5-yl}methyl)-N-methyl-4-(methylsulfonyl)benzamide hydrochloride], the IC50 came out at 0.012 µM.

Tested on in a further data set: not given
Test: not given
Conditions: not given
One may read the melting point as the temperature, or range, at which the solid turns liquid. As to `CC(=O)Nc1nc(-c2ccc(CCNC(=N)N)cc2)c(Cc2ccc(S(C)(=O)=O)cc2)s1.Cl`, the melting point is 217 to 218.5 °C.

`CC(=O)Nc1nc(CCc2ccc(NC(=N)N)cc2)c(Cc2cccc(S(C)(=O)=O)c2)s1` [Production Example 1, N-{4-[2-(4-{[amino(imino)methyl]amino}phenyl)ethyl]-5-[3-(methylsulfonyl)benzyl]-1,3-thiazol-2-yl}acetamide] yielded a melting point of 212 to 213.5 °C.

(Values after US20070254931A1, “Thiazole Derivatives Having Vap-1 Inhibitory Activity” (Astellas Pharma Inc., priority 2004, published 2007).)
